Common to all, as to type: in vivo
Experiment [1] deals with female biting midges (Culicoides impunctatus). Description: Biting midges feeding test (Plexiglas module, treated membrane). As to conditions: control = 1.00, lower = more repellent. On the procedure: The following tests are employed to illustrate the efficacy of the compounds of this disclosure to effectively act as biting midge deterrents, repellents or as spatial inhibitors for biting midges. […] Biting midges are tested in a two-piece Plexiglas module designed to assess their response to feeding deterrents. […] Water (40° C.) flows through the central cavity of the platform at a rate of 215 ml/min. The top piece of the module consists of six 4.5×4.0×5.0 cm chambers, the floors of which are fitted with a sliding door positioned over a circular opening 3.5 cm in diameter. Biting midges are introduced through an aperture 1 cm in diameter on the front wall of the chambers. For each test, five female biting midges (Culicoides impunctatus) are aspirated into each of five chambers of the top module piece and the apertures are plugged with corks wrapped in plastic film. […] To each well, 77.5 μl of green dye (McCormick Food, Hunt Valley, Md.) are added so that those biting midges imbibing the sugar solution can be identified when crushed at the end of the tests. Each membrane receives 50 μl of acetone or experimental compound solution, applied to 9.6 cm^2 circular area on 0.1 mm-thick membranes made of nylon mesh in a silicone matrix. The membranes are then placed over each well in contact with the sugar solution. The circular openings on the floor of each chamber of the top piece of the module are aligned with each membrane-covered well of the bottom piece. The sliding floors of the chambers are then opened allowing biting midges access to the membranes. The number of biting midges landing on the membranes, and those flying within the apparatus, are recorded each minute for five minutes. After five minutes, any biting midges remaining on the membranes are removed with a metal wire, and the door of the floor of each chamber is closed. The top piece of the module is then placed into a freezer for 20 minutes. In the test designed to assess feeding, biting midges are removed from the frozen module, crushed on white paper towels, and examined for the presence of green dye to indicate that feeding had occurred. The proportions of biting midges feeding per trial are analyzed using a standard generalized linear model with a logit link. Landing and flying scores are repeated measures; five readings are obtained for groups of five biting midges. Thus, to maintain independence among the data, the five readings are summed, and then the sums divided by 25 (the maximum score in each category) to create proportions of biting midges landing and flying. The proportions are then transferred using the standard variance stabilizing transformation for proportions (sin^−1 √y, where y is the proportion), and analyzed using ANOVA (Analysis of Variables). In Table 4, weight percent (wt %) refers to the weight of the deterring/repelling/inhibiting compound, or combination of compounds, in the composition used in the tests. […] The weight ratio of the compounds in the combination of compounds is given in parentheses in the “Compound(s)” column of Table 4.

Experiment [2] deals with mosquitoes. The experiment can be described thus: Spatial inhibition of mosquitoes, outdoor Mosquito Magnet Liberty Plus trap catch. As to conditions: for Percent Caught Relative To Control: control trap = 100% catch, lower = more inhibition; for percent mosquitoes caught relative to the control (relative catch): two grams of test compound on absorbent material in CO2 and r-octenol stream of trap, 2-5 days, FIG. 5. The method, then: Two grams of test compound was absorbed onto pieces of absorbent material. These pieces of absorbent material (fragrance release material from Rhopore Inc.) containing absorbed test compound were then placed in a stream of CO2 and r-octenol being released from an American Biophysics Mosquito Magnet Liberty Plus mosquito trap designed to attract mosquitoes. The test were rotated over a period of 2-5 days in such a manner that both control (trap without test compound) and test compound were tested an equal number of times in each trap employed. The number of mosquitoes caught in the traps with test compounds was compared to the number of mosquitoes caught in the trap with no test compound material present. […] Thus, a lowered percentage is indicative of the increasing ability of the test compounds to inhibit the ability of the mosquitoes sense the target. […] In Table 3, weight percent (wt %) refers to the weight of the deterring/repelling/inhibiting compound, or combination of compounds, in the composition used in the tests. In the “Percent Caught Relative to Control” column in Table 3, a lower percentage is indicative of the increasing ability of the test compounds to inhibit the ability of the mosquitoes sense the target. The weight ratio of the compounds in the combination of compounds is given in parentheses in the “Compound(s)” column of Table 3.

Experiment [3] deals with female mosquitoes (Aedes aegypti). The experiment can be described thus: Mosquitoes flying test (Plexiglas module, mosquitoes flying within the apparatus). As to conditions: for Flying Relative To Control: control = 1, higher = more inhibitor activity; for spatial inhibitor activity for mosquitoes (flying tests, FIGS. 2 and 4), in words: flying relative to control. The method, then: The test was conducted at 0900-2100 hours in a walk-in incubator (26° C., 63-80% RH) illuminated by fluorescent lights. Mosquitoes were tested in a two-piece Plexiglas module designed to assess their response to feeding deterrents. The bottom piece of the module was 40×7×4-cm hollow platform supporting six circular wells (diameter=3.8 cm, depth=6 mm). Water (40° C.) flowed through the central cavity of the platform at a rate of 215 ml/min. The top piece of the module consisted of six 4.5×4.0×5.0 cm chambers, the floors of which were fitted with a sliding door positioned over a circular opening 3.5 cm in diameter. Mosquitoes were introduced through an aperture 1 cm in diameter on the front wall of the chambers. For each test, five female mosquitoes (Aedes aegypti) were aspirated into each of five chambers of the top module piece and the apertures were plugged with corks wrapped in plastic film. The wells on the bottom piece of the module were filled with 7 ml of 10% sucrose solution containing ATP (2.9 mg/ml). To each well, 75 μl of green dye (McCormick Food, Hunt Valley, Md.) were added so that those mosquitoes imbibing the sugar solution could be identified when crushed at the end of the tests. Each membrane received 50 ul of acetone or experimental compound solution, applied to 9.6 cm^2 circular area on 0.1 mm-thick membranes made of nylon mesh in a silicone matrix. The membranes were then placed over each well in contact with the sugar solution.
The circular openings on the floor of each chamber of the top piece of the module were aligned with each membrane-covered well of the bottom piece. The sliding floors of the chambers were then opened allowing mosquitoes access to the membranes. The number of mosquitoes landing on the membranes, and those flying within the apparatus, were recorded each minute for five minutes. After five minutes, any mosquitoes remaining on the membranes were removed with a metal wire, and the door of the floor of each chamber was closed. The top piece of the module was then placed into a freezer for 20 minutes. In the test designed to assess feeding, mosquitoes were removed from the frozen module, crushed on white paper towels, and examined for the presence of green dye to indicate that feeding had occurred. The proportions of mosquitoes feeding per trial were analyzed using a standard generalized linear model with a logit link. Landing and flying scores are repeated measures; five reading were obtained for groups of five mosquitoes. Thus, to maintain independence among the data, the five readings were summed, and then the sums divided by 25 (the maximum score in each category) to create proportions of mosquitoes landing and flying. The proportions were then transferred using the standard variance stabilizing transformation for proportions (sin^−1 √y, where y is the proportion), and analyzed using ANOVA (Analysis of Variables)
In Table 2, weight percent (wt %) refers to the weight of the deterring/repelling/inhibiting compound, or combination of compounds, in the composition used in the tests. […] The weight ratio of the compounds in the combination of compounds is given in parentheses in the “Compound(s)” column of Table 2.

Setting [4] is: 80 wt % compound(s) in composition.
Where [5] appears, read: 85 wt % compound(s) in composition.
The mark [6] stands for this setting: 77.5 wt % compound(s) in composition.
The mark [7] stands for this setting: 92.5 wt % compound(s) in composition.
The mark [8] stands for this setting: 82.5 wt % compound(s) in composition.
Setting [9] is: 87.5 wt % compound(s) in composition.
Setting [10] is: 95 wt % compound(s) in composition.
The mark [11] stands for this setting: 90 wt % compound(s) in composition.

For the compound `Cc1ccc(C(C)(C)O)cc1`, in experiment [1] (setting [4]), the “Feeding Relative To Control” value came out at 0.73. For the same compound, the “Percent Caught Relative To Control” value in experiment [2] (setting [4]) is listed as 26%. Also, the “percent mosquitoes caught relative to the control (relative catch)” value in experiment [2] is “about 34%”. Further, the “Flying Relative To Control” value in experiment [3] (setting [4]) is recorded as 1.0. For the same compound, the “spatial inhibitor activity for mosquitoes (flying tests, FIGS. 2 and 4), in words” value (“spatial inhibitor activity” for short) in experiment [3] is given as “particularly effective as spatial inhibitors for mosquitoes”.

Regarding `C=C(C)[C@@H]1CC=C(C)[C@H](O)C1` (relative stereo) [cis-Carveol], in experiment [1] (setting [5]), the “Feeding Relative To Control” value was found to be 0.67. In experiment [2] (setting [5]), the “Percent Caught Relative To Control” value was found to be 23%. Further, in experiment [3] (setting [5]), the “Flying Relative To Control” value amounted to 1.35.

As for `C=C(C)[C@@H]1CC=C(C)[C@@H](O)C1` (relative stereo) [trans-Carveol], the “Feeding Relative To Control” value in experiment [1] (setting [6]) is reported as 0.63. In experiment [2] (setting [6]), the “Percent Caught Relative To Control” value was found to be 22%. In experiment [3] (setting [6]), the “Flying Relative To Control” value is reported as 1.55.

As to `C=C(C)C1CCC2(C)OC2C1` (single isomer, unassigned; (-)) [(−) Limonene oxide], the “Feeding Relative To Control” value in experiment [1] (setting [7]) came out at 0.75. In addition, in experiment [2] (setting [7]), the “Percent Caught Relative To Control” value was determined as 17%. Further, in experiment [3] (setting [7]), the “Flying Relative To Control” value is 1.1.

Regarding `CC(C)=CCCC(C)=CC=O` [Citral], the “Feeding Relative To Control” value in experiment [1] (setting [8]) was found to be 0.60. In experiment [2] (setting [8]), the “Percent Caught Relative To Control” value is 10%. Further, the “Flying Relative To Control” value in experiment [3] (setting [8]) is listed as 2.0. Besides, in experiment [3], the “spatial inhibitor activity” value was “particularly effective as spatial inhibitors for mosquitoes”.

With `CC(C)=CCCC(C)CC=O` (stereo not drawn) [Citronellal], in experiment [1] (setting [7]), the “Feeding Relative To Control” value is given as 0.64. Also, the “Percent Caught Relative To Control” value in experiment [2] (setting [7]) came to 11%. Besides, the “Flying Relative To Control” value in experiment [3] (setting [7]) was found to be 1.9. In experiment [3], the “spatial inhibitor activity” value is “particularly effective as spatial inhibitors for mosquitoes”.

Consider `CC(C)=CCCC(C)CCO` (stereo not drawn) [Citronellol], for which the “Feeding Relative To Control” value in experiment [1] (setting [9]) worked out at 0.64. Besides, in experiment [2] (setting [9]), the “Percent Caught Relative To Control” value amounted to 12%. In addition, the “Flying Relative To Control” value in experiment [3] (setting [9]) came to 1.55. The “spatial inhibitor activity” value in experiment [3] is recorded as “particularly effective as spatial inhibitors for mosquitoes”.

For the compound `CC(=O)OCCC(C)CCC=C(C)C` (stereo not drawn) [Citronellyl acetate], in experiment [1] (setting [4]), the “Feeding Relative To Control” value worked out at 0.67. The “Percent Caught Relative To Control” value in experiment [2] (setting [4]) came out at 26%. Besides, in experiment [3] (setting [4]), the “Flying Relative To Control” value stood at 1.5. For the same compound, the “spatial inhibitor activity” value in experiment [3] is “particularly effective as spatial inhibitors for mosquitoes”.

With `CC(=O)OC/C=C(\C)CCC=C(C)C` [Geranyl acetate], the “Feeding Relative To Control” value in experiment [1] (setting [5]) stood at 0.64. Also, the “Percent Caught Relative To Control” value in experiment [2] (setting [5]) was 30%. Besides, the “Flying Relative To Control” value in experiment [3] (setting [5]) came to 1.75. In experiment [3], the “spatial inhibitor activity” value was “particularly effective as spatial inhibitors for mosquitoes”.

For `C=CC(C)(CCC=C(C)C)OC(C)=O` (stereo not drawn) [Linaloyl acetate], the “Feeding Relative To Control” value in experiment [1] (setting [10]) came to 0.72. Besides, in experiment [2] (setting [10]), the “Percent Caught Relative To Control” value is 15%. Further, in experiment [3] (setting [10]), the “Flying Relative To Control” value is listed as 1.3. The “spatial inhibitor activity” value in experiment [3] is “particularly effective as spatial inhibitors for mosquitoes”.

Consider `CC(=O)OC/C=C(/C)CCC=C(C)C` [Neryl acetate], for which, in experiment [1] (setting [6]), the “Feeding Relative To Control” value turned out to be 0.72. Besides, the “Percent Caught Relative To Control” value in experiment [2] (setting [6]) came out at 22%. In addition, the “Flying Relative To Control” value in experiment [3] (setting [6]) was 2.0. For the same compound, the “spatial inhibitor activity” value in experiment [3] is “particularly effective as spatial inhibitors for mosquitoes”.

As to `CC1=CCC(O)(C(C)C)CC1` (stereo not drawn) [Terpinen-4-ol], in experiment [1] (setting [11]), the “Feeding Relative To Control” value worked out at 0.74. In experiment [2] (setting [11]), the “Percent Caught Relative To Control” value is 20%. Moreover, the “percent mosquitoes caught relative to the control (relative catch)” value in experiment [2] is recorded as “about 38%”. For the same compound, the “Flying Relative To Control” value in experiment [3] (setting [11]) is reported as 1.7. Moreover, the “spatial inhibitor activity” value in experiment [3] is “particularly effective as spatial inhibitors for mosquitoes”.

Regarding `CC(C)[C@@H]1CC[C@@H](C)C(=O)C1` [Tetrahydrocarvone], the “Feeding Relative To Control” value in experiment [1] (setting [10]) is given as 0.72. Also, the “Percent Caught Relative To Control” value in experiment [2] (setting [10]) was 25%. Also, the “percent mosquitoes caught relative to the control (relative catch)” value in experiment [2] is reported as “about 52%”. Further, the “Flying Relative To Control” value in experiment [3] (setting [10]) was found to be 1.65.

The record behind these values is patent US20210029993A1, “SPATIAL INHIBITORS, DETERRENTS AND REPELLENTS FOR MOSQUITOES AND MIDGES” (BEDOUKIAN RESEARCH, INC., priority 2005, published 2021).
